Patent US6908931B2, “Tetrahydroisoquinoline derivatives as melatonin MT2 antagonists” (Bristol-Myers Squibb Company, priority 2003, dated 2005)
pIC50: −log10 of the molar value.

Biological target: T1, human MT2 receptor (Homo sapiens, UniProt P49286)
T1 construct: melatonin MT1 and MT2 receptors cDNA were individually subcloned into pcDNA3 and introduced into NIH-3T3 cells using Lipofectamine; expressed in transfected cells
T1 sequence (P49286 1-362): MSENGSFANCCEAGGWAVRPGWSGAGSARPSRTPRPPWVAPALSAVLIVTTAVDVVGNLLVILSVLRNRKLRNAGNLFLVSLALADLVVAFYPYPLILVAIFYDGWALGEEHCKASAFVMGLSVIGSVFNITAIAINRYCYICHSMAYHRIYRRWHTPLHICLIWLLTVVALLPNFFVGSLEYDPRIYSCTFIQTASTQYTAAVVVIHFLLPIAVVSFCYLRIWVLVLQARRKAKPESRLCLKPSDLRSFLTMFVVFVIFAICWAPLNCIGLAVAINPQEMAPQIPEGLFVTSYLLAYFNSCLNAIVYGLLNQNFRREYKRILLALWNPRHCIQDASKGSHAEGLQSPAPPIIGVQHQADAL
Experiment: Melatonin receptor binding assay (MT2), 2-[125I]-iodomelatonin
Details: membrane homogenates of NIH-3T3 cells expressing MT2; 2-[125I]-iodomelatonin 0.2 nM; 37° C., 1 hour; read-out: MT2 IC50
Procedure: Melatonin receptor binding assay.
Membrane homogenates: melatonin MT1 and MT2 receptors cDNA were individually subcloned into pcDNA3 and introduced into NIH-3T3 cells using Lipofectamine. […] For preparing membrane homogenates, pellets are thawed on ice, and re-suspended in TME buffer in the presence of 10 μg/ml aprotinin and leupeptin, and 100 μM phenylmethylsulfonylfluoride. The cells were then homogenized using a dounce homogenizer, and centrifuged. The resulting pellet was re-suspended with dounce homogenizer in TME (supplemented with the above protease inhibitors) and frozen. On the day of assay, a small aliquot was thawed on ice and re-suspended in the ice cold TME (1:50-1:100 v/v) and held on ice until assayed. Incubation is at 37° C. for 1 hour. Reaction is terminated by filtration. Filters were washed 3 times.

SMILES | pIC50
COc1cc2c(cc1OC)C(CC(c1ccccc1)c1ccccc1)N(C(=O)C(F)(F)F)CC2 (stereo not drawn) [Example 7, N-trifluoroacetyl 1-(2,2-diphenyleth-1-yl)-6,7-dimethoxy-1,2,3,4-tetrahydroisoquinoline] | 6.00 to 7.00
COc1cc2c(cc1OC)C(CC(c1ccccc1)c1ccccc1)N(C(C)=O)CC2 (stereo not drawn) [Example 1, N-acetyl 1-(2,2-diphenyleth-1-yl)-6,7-dimethoxy-1,2,3,4-tetrahydroisoquinoline] | > 7.00
COc1cc2c(cc1Br)CCN(C(=O)c1ccc(C)cc1)C2CC(c1ccccc1)c1ccccc1 (stereo not drawn) [Example 39] | 6.00 to 7.00
COc1ccc2c(c1)CCN(C(C)=O)C2CC(c1ccccc1)c1ccccc1 (stereo not drawn) [Example 17] | 6.00 to 7.00
COc1ccc2c(c1)C(CCc1ccc(F)cc1)N(C(=O)OCC(C)C)CC2 (stereo not drawn) [Example 120] | 6.00 to 7.00
CCCCCC(=O)N1CCc2cc(OC)c(OC)cc2C1CCc1ccccc1 (stereo not drawn) [Example 60] | 6.00 to 7.00
O=C(c1ccno1)N1CCc2cc3c(cc2C1CCc1ccc(Cl)cc1)OCO3 (stereo not drawn) [Example 145] | 6.00 to 7.00
COc1cc2c(cc1OC)C(CC1c3ccccc3-c3ccccc31)N(C(C)=O)CC2 (stereo not drawn) [Example 26] | 6.00 to 7.00
COc1cc2c(cc1OC)C(CC(C)c1ccccc1)N(C(C)=O)CC2 (stereo not drawn) [Example 18] | 6.00 to 7.00
CCC(=O)N1CCc2cc(OC)c(OC)cc2C1CCc1cccc(OC)c1 (stereo not drawn) [Example 87] | > 7.00
CCCC(=O)N1CCc2cc3c(cc2C1CCc1ccc(Cl)cc1)OCO3 (stereo not drawn) [Example 144] | > 7.00
CCCC(=O)N1CCc2cc3c(cc2C1CCc1ccc(F)cc1)OCO3 (stereo not drawn) [Example 101] | > 7.00
CC(=O)N1CCc2cc3c(cc2C1CC(c1ccccc1)c1ccccc1)OCO3 (stereo not drawn) [Example 91] | 6.00 to 7.00
O=C(C=Cc1ccccc1)N1CCc2cc3c(cc2C1CCc1ccc(F)cc1)OCO3 (stereo not drawn) [Example 108] | 6.00 to 7.00
COc1cccc2c1CCN(C(C)=O)C2CC(c1ccccc1)c1ccccc1 (stereo not drawn) [Example 29] | 6.00 to 7.00
CCNC(=O)N1CCc2cc(OC)c(OC)cc2C1CCc1cccc(OC)c1 (stereo not drawn) [Example 88] | > 7.00
COc1cc2c(cc1Br)CCN(C(=O)c1ccco1)C2CC(c1ccccc1)c1ccccc1 (stereo not drawn) [Example 30] | 6.00 to 7.00
COc1cc2c(cc1OC)C(CC(c1ccccc1)c1ccccc1)N(C=O)CC2 (stereo not drawn) [Example 2, N-formyl 1-(2,2-diphenyleth-1-yl)-6,7-dimethoxy-1,2,3,4-tetrahydroisoquinoline] | > 7.00
CCC(=O)N1CCc2cc3c(cc2C1CCc1ccc(F)cc1)OCO3 (stereo not drawn) [Example 105] | > 7.00
COc1cc2c(cc1OC)C(CC(c1ccccc1)c1ccccc1)N(C(=O)C1CCC1)CC2 (stereo not drawn) [Example 43] | 6.00 to 7.00
COc1cc2c(cc1Br)CCN(C(=O)C1CCCCC1)C2CC(c1ccccc1)c1ccccc1 (stereo not drawn) [Example 33] | 6.00 to 7.00
COc1cc2c(cc1Br)CCN(C(C)=O)C2CC(c1ccccc1)c1ccccc1 (stereo not drawn) [Example 22] | > 7.00
COc1cc2c(cc1OC)C(CCc1ccccc1)N(C(=O)c1cccc([N+](=O)[O-])c1)CC2 (stereo not drawn) [Example 65] | 6.00 to 7.00
COc1ccc(C(=O)N2CCc3cc(OC)c(OC)cc3C2CCc2ccccc2)cc1 (stereo not drawn) [Example 64] | > 7.00

SMILES | pIC50
COCC(=O)N1CCc2ccc(OC)cc2C1CCc1ccc(F)cc1 (stereo not drawn) [Example 110] | > 7.00
COc1cc2c(cc1Br)CCN(C(=O)c1cccc([N+](=O)[O-])c1)C2CC(c1ccccc1)c1ccccc1 (stereo not drawn) [Example 37] | 6.00 to 7.00
COc1cc2c(cc1Br)CCN(C(=O)CC(C)(C)C)C2CC(c1ccccc1)c1ccccc1 (stereo not drawn) [Example 36] | 6.00 to 7.00
COc1ccc2c(c1)C(CCc1ccc(F)cc1)N(C(=O)C=Cc1ccccc1)CC2 (stereo not drawn) [Example 122] | 6.00 to 7.00
O=C(CCl)N1CCc2cc3c(cc2C1CCc1ccc(F)cc1)OCO3 (stereo not drawn) [Example 98] | > 7.00
COc1ccc(C(=O)N2CCc3ccc(OC)cc3C2CCc2ccc(F)cc2)cc1 (stereo not drawn) [Example 111] | 6.00 to 7.00
COc1cc2c(cc1Br)CCN(C(=O)c1ccc(C(F)(F)F)cc1)C2CC(c1ccccc1)c1ccccc1 (stereo not drawn) [Example 40] | 6.00 to 7.00
COc1cc2c(cc1Br)CCN(C(=O)C1CCC1)C2CC(c1ccccc1)c1ccccc1 (stereo not drawn) [Example 32] | 6.00 to 7.00
COc1cc2c(cc1OC)C(CCc1ccccc1)N(C(=O)c1ccc(C(F)(F)F)cc1)CC2 (stereo not drawn) [Example 70] | 6.00 to 7.00
CC(=O)OCC(=O)N1CCc2cc3c(cc2C1CCc1ccc(Cl)cc1)OCO3 (stereo not drawn) [Example 146] | 6.00 to 7.00
CC(C)COC(=O)N1CCc2cc3c(cc2C1CCc1ccc(F)cc1)OCC3 (stereo not drawn) [Example 135] | 6.00 to 7.00
COc1cc2c(cc1OC)C(CCc1ccccc1)N(C(=O)c1cccc(C)c1)CC2 (stereo not drawn) [Example 67] | 6.00 to 7.00
CCC(=O)N1CCc2cc(OC)c(OC)cc2C1CC(c1ccccc1)c1ccccc1 (stereo not drawn) [Example 3, N-propionyl 1-(2,2-diphenyleth-1-yl)-6,7-dimethoxy-1,2,3,4-tetrahydroisoquinoline] | > 7.00
COc1ccc(C(=O)N2CCc3cc4c(cc3C2CCc2ccc(Cl)cc2)OCO4)cc1 (stereo not drawn) [Example 141] | 6.00 to 7.00
CCCCCCC(=O)N1CCc2cc(OC)c(OC)cc2C1CCc1ccccc1 (stereo not drawn) [Example 61] | 6.00 to 7.00
CC(=O)OCC(=O)N1CCc2cc3c(cc2C1CCc1ccc(F)cc1)OCO3 (stereo not drawn) [Example 104] | 6.00 to 7.00
CNC(=O)N1CCc2cc(OC)c(OC)cc2C1CC(c1ccccc1)c1ccccc1 (stereo not drawn) [Example 9, N-methylcarbamoyl 1-(2,2-diphenyleth-1-yl)-6,7-dimethoxy-1,2,3,4-tetrahydroisoquinoline] | > 7.00
COc1cc2c(cc1OC)C(CC(c1ccc(Cl)cc1)c1ccc(Cl)cc1)N(C(C)=O)CC2 (stereo not drawn) [Example 85] | > 7.00
COc1ccc2c(c1)C(CCc1ccc(F)cc1)N(C(=O)CCl)CC2 (stereo not drawn) [Example 112] | > 7.00
O=C(c1ccno1)N1CCc2cc3c(cc2C1CCc1ccc(F)cc1)OCO3 (stereo not drawn) [Example 103] | > 7.00
O=C(OCc1ccccc1)N1CCc2cc3c(cc2C1CCc1ccc(Cl)cc1)OCO3 (stereo not drawn) [Example 143] | 6.00 to 7.00
COc1cc2c(cc1OC)C(CCc1ccccc1)N(C(=O)COc1ccccc1)CC2 (stereo not drawn) [Example 56] | 6.00 to 7.00
COc1cc2c(cc1OC)C(CC(c1ccccc1)c1ccccc1)N(S(C)(=O)=O)CC2 (stereo not drawn) [Example 12] | > 7.00
COc1cc2c(cc1OC)C(CC(c1ccccc1)c1ccccc1)N(C(=O)c1cccs1)CC2 (stereo not drawn) [Example 13] | 6.00 to 7.00
